Experimental data as given in US11583525B2, “Geranylgeranyltransferase I inhibitor for treatment of a PTEN defective cancer” (H. LEE MOFFITT CANCER CENTER AND RESEARCH INSTITUTE, INC., priority 2017, dated 2023).
“Also recorded” adds a separate entry of the source. Peptide text beside a SMILES is read from it. * marks the point of attachment. Cbz = O=C(OCc1ccccc1)*

Columns and labels:
Format in all cases: cell-based, human
[1] = tested on: IP3R3; assay: IP3R3 levels in U87 and A549 cells (immunoblotting); conditions: U87 and A549 cells (no or low PTEN); GGTi-2418 for 16 h
[2] = tested on: FBXL2; assay: Live-cell imaging of GFP-tagged FBXL2 localization in HeLa cells; conditions: HeLa cells transfected with GFP-tagged FBXL2; GGTi-2418 15 μM for 16 h
Description: FIGS. 6A, 6B, 6C, 6D, 6E, 6F, 6G, and 6H that the degradation of IP3R3 is dependent on FBXL2 localization to cell membranes and on the segregase activity of p97. […] Live cell imaging was carried out with an LSM510 confocal microscope using a 63× objective. Scale bars, 10 μm. […] Cells were subsequently harvested at the indicated times for immunoblotting. […] Cells were subsequently harvested for immunoblotting. This experiment was performed once. […] The bracket on the right marks a ladder of bands which, presumably, are ubiquitinated species of IP3R3 that are not degraded when p97 is inhibited. […] Cells were subsequently stimulated with medium containing serum and harvested at the indicated time points for immunoblotting. […] Error bars indicate s.e.m. […] Thus, we propose that, after its FBXL2-mediated ubiquitination, IP3R3 is extracted from cell membranes by the segregase activity of p97 to be degraded by the proteasome. […] 24 h post-transfection, cells were treated with MG132 for 3 h before harvesting for immunoprecipitation and immunoblotting as indicated. This experiment was performed twice. […] After immunopurification with an anti-Flag resin, in vitro ubiquitination of IP3R3 was performed in the presence of UAE1, Ubch3, Ubch5 and ubiquitin (Ub). […] Samples were analysed by immunoblotting with the indicated antibodies. […]

[3] = tested on: IP3R3; assay: IP3R3 stability by immunoblotting in NHFs, HeLa and HEK293T cells incubated with GGTi-2418; conditions: HeLa, HEK293T cells, 10-15 μM GGTi-2418, NHFs 30 h then cycloheximide and ATP
Description: FIGS. 6A, 6B, 6C, 6D, 6E, 6F, 6G, and 6H that the degradation of IP3R3 is dependent on FBXL2 localization to cell membranes and on the segregase activity of p97. […] Live cell imaging was carried out with an LSM510 confocal microscope using a 63× objective. Scale bars, 10 μm. […] Cells were subsequently harvested at the indicated times for immunoblotting. […] Cells were subsequently harvested for immunoblotting. This experiment was performed once. […] The bracket on the right marks a ladder of bands which, presumably, are ubiquitinated species of IP3R3 that are not degraded when p97 is inhibited. […] Cells were subsequently stimulated with medium containing serum and harvested at the indicated time points for immunoblotting. […] Error bars indicate s.e.m. […] Thus, we propose that, after its FBXL2-mediated ubiquitination, IP3R3 is extracted from cell membranes by the segregase activity of p97 to be degraded by the proteasome. […] 24 h post-transfection, cells were treated with MG132 for 3 h before harvesting for immunoprecipitation and immunoblotting as indicated. This experiment was performed twice. […] Samples were analysed by immunoblotting with the indicated antibodies. […]
Cell culture and transfections. […] All cells grown in culture were periodically monitored for mycoplasma contamination. […]

[4] = tested on: IP3R3; assay: IP3R3 levels and FBXL2 binding in HEK293T cells transfected with Flag-tagged FBXL2 constructs
Description: 24 h post-transfection, cells were treated with MG132 for 3 h before harvesting for immunoprecipitation and immunoblotting as indicated. WCL, whole-cell lysate from untransfected cells. […] After harvesting, cells were lysed, and cell membranes (CM) were isolated and immunoprecipitated with either a normal mouse IgG or an anti-Flag antibody. Subsequently, immunoprecipitates were analysed by immunoblotting as indicated. The results of these experiments (n=2) indicate that FBXL2 is incorporated into a complete SCF ligase that binds its substrate(s) at cellular membranes. […] After harvesting, cells were lysed and cytoplasmic (CYTO) and cell membrane (CM) fractions were isolated and analysed by immunoblotting as indicated. Actin and calnexin are used as markers for cytoplasmic and cell membrane fractions, respectively. This experiment was performed twice. […] 24 h post-transfection, where indicated, cells were treated with MG132 for 3 h before harvesting for immunoprecipitation and immunoblotting. Ned. CUL1, neddylated CUL1. […] The experiment was performed in the presence or absence of MG132 as indicated. Whole-cell lysates were immunoblotted as indicated. The asterisk indicates a non-specific band. This experiment was performed twice. […] P values were calculated by unpaired t-test. Error bars indicate s.e.m. […] Error bars indicate s.e.m. The values represent the ratios between FBXL2 and GAPDH mRNAs. […]

SMILES | IP3R3 levels [1] | FBXL2 localization [2] | IP3R3 stability [3] | FBXL2-induced decrease in the levels of IP3R3 ([4]; HEK293T cells expressing wild-type FBXL2, MG132) | difference in IP3R3 binding between FBXL2(ΔF-box) and wild-type FBXL2 ([4]; HEK293T cells, MG132 for 3 h)
Cc1nc[nH]c1CN1CCN(C(=O)N[C@@H](CC(C)C)C(=O)O)[C@@H](Cc2ccccc2)C1=O [GGTi-2418] | IP3R3 levels increased | delocalized FBXL2; also recorded: delocalizes FBXL2 from membranes | stabilizes IP3R3 |  | 
CC(C)C[C@@H](C=O)NC(=O)[C@H](CC(C)C)NC(=O)[C@H](CC(C)C)NC(=O)OCc1ccccc1 [MG132] (Cbz-Leu-Leu-Leu-aldehyde) |  |  |  | this decrease was rescued by MG132 treatment | this difference was abolished by MG132 treatment
